US20260378560A1, “APPROACHES TO DESIGNING AND PERFORMING COMPRESSED BIOLOGICAL EXPERIMENTS AND SYSTEMS FOR IMPLEMENTING THE SAME” (EXVIVO LABS INC., priority 2023, published 2026)

Legend:
REH [1] = assay: Cell viability (CellTiter Glo), library of cancer drugs, individual or sample compression with randomized (alphabetical) pools, REH; format: cell-based; conditions: REH; for DRS: None (measured individually); for DRS from deconvolution: Samples, 7 Pick 3 randomized (alphabetical) sample pools
Summary of the method: (§1)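 Cells cultured with each drug individually at 1 nM–10 μM; viability by ATP luminescence (CellTiter Glo) to build dose-response curves and DRS. Samples read singly or pooled alphabetically (each drug in 3 of 7 pools), with pooled DRS recovered by additivity-based SUM deconvolution.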

MOLT-4 [2] = assay: Cell viability (CellTiter Glo), library of cancer drugs, individual or sample compression with randomized (alphabetical) pools, MOLT-4; format: cell-based; conditions: for DRS: MOLT-4, None (measured individually); for DRS from deconvolution: MOLT-4, Samples, 7 Pick 3 randomized (alphabetical) sample pools
Summary of the method: as §1

REH [3] = assay: Cell viability (CellTiter Glo), compressed perturbation pools with informed pool design, MAX-based deconvolution, REH; conditions: for DRS / DRS from MAX-based deconvolution / DRS, REH, MAX / top hit of cohort (deconvoluted effect size): REH; for DRS: None (measured individually), informed pool design table; for DRS from MAX-based deconvolution: Samples, 7 Pick 3 informed perturbation pools; for DRS, REH, MAX: compressed perturbation pools, informed pool design, MAX-based deconvolution; for top hit of cohort (deconvoluted effect size): informed perturbation pools;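 on DRS from MAX-based deconvolution: higher DRS means a larger drug effect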
Summary of the method: (§2)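 Per-drug DRS recovered by MAX deconvolution, which assumes the strongest pool member masks the rest; after ranking, each drug in turn takes the DRS of the lowest-signal pool containing it, and leftovers score zero. Pools built from drug class and known toxic combinations; dose-response spans 1 nM to 10 μM, read by ATP-based luminescence.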

MOLT-4 [4] = assay: Cell viability (CellTiter Glo), compressed perturbation pools with informed pool design, MAX-based deconvolution, MOLT-4; conditions: for DRS: MOLT-4, None (measured individually), informed pool design table; for DRS from MAX-based deconvolution: MOLT-4, Samples, 7 Pick 3 informed perturbation pools; for DRS, MOLT-4, MAX: compressed perturbation pools, informed pool design, MAX-based deconvolution; for top hit of cohort (deconvoluted effect size): informed perturbation pools;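 on DRS from MAX-based deconvolution: higher DRS means a larger drug effect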
Summary of the method: as §2

REH [5] = assay: Cell viability (CellTiter Glo), compressed perturbation pools with informed pool design, SUM-based deconvolution, REH; design: scale not given here
Protocol: (§3) Total cell viability was measured for each sample using an ATP-based luminescence assay (i.e., CellTiter Glo). Each cancer drug was then screened at multiple concentrations ranging from one nM to ten μM in order to generate a dose-response curve and calculate a DRS for each cancer cell line.
(§4) Each cancer drug was cultured with target cells individually. At the end of the screen, samples were either analyzed individually or compressed into pools for analysis. The library was compressed alphabetically into ten cohorts, each of which contained seven cancer drugs present in three out of the seven pools, as shown in Table VII. Said another way, the screening platform 210 generated a “7 pick 3” compressed library by assigning the cancer drugs among different pools. […] The library was also compressed into ten cohorts with pools designed based on information known about each cancer drug, as shown in Table VIII. After cell viability measurement and DRS calculation, the DRS of each cancer drug in the samples generated based on the pools were deconvoluted and compared to the DRS for each cancer drug measured individually.
(§5) In parallel to the exemplary sample compression screen covered in Table VII, perturbations were compressed into pools and then screened. The pools were designed using drug class as a feature with two compression rules (or simply “rules”). The first rule required that drugs from the same class be separated into different cohorts (i.e., mutually exclusive groups of pools). The second rule separated PI3K pathway inhibitors from MAPK pathway inhibitors, as inhibiting these pathways in parallel is known to be synergistic but has not been clinically effective due to dose-limiting toxicities. A benefit of compressing perturbations is the ability to measure additive, antagonistic, and synergistic effects between drugs in the same pool. However, these effects can negatively impact deconvolution of individual drug effects. Therefore, combinations of drugs for which evidence of clinical toxicity exists can be assigned to different pools in accordance with an informed pooling operation. As new preclinical or clinical evidence of toxic combinations becomes available, the rules implemented by the screening platform 210—and more specifically, its algorithm for compressing members of a library—can be updated accordingly.
(§6) In SUM-based deconvolution, an assumption of additivity is used to quantify the individual effects of each perturbation on each target. Additivity implies that each perturbation effect on each target is positively contributing to the overall effect measured for that pool. This is an accurate assumption for certain experiments, such as when targets or samples are compressed. When targets are pooled—or when samples containing different targets are pooled—the effect of each perturbation on each individual target is diluted. In other words, each perturbation has an isolated effect on a target in culture, and the sum total of the isolated effects are measured when pooled. Therefore, SUM-based deconvolution breaks down the sum total measured for a pool and assigns estimated fractional effects to each compressed perturbation or target in the pool. The screening platform 210 used SUM-based deconvolution for all target and sample compression experiments described above.
(§7) As mentioned above, SUM-based deconvolution uses the overlapping pool design to identify relative relationships and ranges for the individual effects of each perturbation. When the overlapping pool design is not sufficient to solve for the polynomials representing perturbation effects, an anchor perturbation can be identified by the screening platform 210 based on rank order and assigned an effect size of zero. The anchor perturbation may be the lowest ranked perturbation in the rank order. This then enables the screening platform 210 to solve for the polynomials for the remaining perturbations.

MOLT-4 [6] = assay: Cell viability (CellTiter Glo), compressed perturbation pools with informed pool design, SUM-based deconvolution, MOLT-4; design: scale not given here
Protocol: as §3, §4, §5, §6, §7

Row | SMILES | DRS (REH [1]) | DRS from deconvolution (REH [1]) | DRS (MOLT-4 [2]) | DRS from deconvolution (MOLT-4 [2]) | DRS (REH [3]) | DRS from MAX-based deconvolution (REH [3]) | DRS, REH, MAX (REH [3]) | DRS (MOLT-4 [4]) | DRS from MAX-based deconvolution (MOLT-4 [4]) | DRS, MOLT-4, MAX (MOLT-4 [4]) | DRS, REH, SUM (REH [5]) | DRS, MOLT-4, SUM (MOLT-4 [6]) | effect on REH relative to MOLT cell line (REH [3]) | effect size relative to everolimus (MOLT-4 [4]; MOLT, Cohort 10) | top hit of cohort (deconvoluted effect size) (REH [3]) | top hit of cohort (deconvoluted effect size) (MOLT-4 [4]; MOLT)
1 | C[C@@H](Oc1cc(-c2cnn(C3CCNCC3)c2)cnc1N)c1c(Cl)ccc(F)c1Cl [Crizotinib] | 0.23 | 015 | 0.23 | 0.28 | 0.27 | 0.00 | 0.00 | 0.27 | 0.27 | 0.00 | 0.00 | 3.06 |  |  |  | 
2 | COc1cc2ncnc(Nc3ccc(F)c(Cl)c3)c2cc1NC(=O)/C=C/CN1CCCCC1 [Dacomitinib] | 3.10 | 3.15 | 2.60 | 2.53 | 0.00 | 0.00 | 0.00 | 0.00 | 0.00 | 0.00 | 1.33 | 0.99 |  |  |  | 
3 | COc1cc(OC)cc(N(CCNC(C)C)c2ccc3ncc(-c4cnn(C)c4)nc3c2)c1 [Erdafitinib] | 4.37 | 4.03 | 3.37 | 3.41 | 0.38 | 0.73 | 0.00 | 0.38 | 4.94 | 3.88 | 0.00 | 1.38 |  |  |  | 
4 | C#Cc1cccc(Nc2ncnc3cc(OCCOC)c(OCCOC)cc23)c1 [Erlotinib] | 1.84 | 1.59 | 1.04 | 0.96 | 5.88 | 7.06 | 0.00 | 0.68 | 5.39 | 0.00 | 1.67 | 1.55 |  |  |  | 
5 | CO[C@H]1C[C@@H]2CC[C@@H](C)[C@@](O)(O2)C(=O)C(=O)N2CCCC[C@H]2C(=O)O[C@H]([C@H](C)C[C@@H]2CC[C@@H](OCCO)[C@H](OC)C2)CC(=O)[C@H](C)/C=C(\C)[C@@H](O)[C@@H](OC)C(=O)[C@H](C)C[C@H](C)/C=C/C=C/C=C/1C [Everolimus] | 7.39 | 7.70 | 2.19 | 2.35 | 0.23 | 0.00 | 9.02 | 0.23 | 0.00 | 2.51 | 9.02 | 1.42 | much larger effects on the REH cell line |  |  | 
6 | CC[C@H](Nc1ncnc2[nH]cnc12)c1nc2cccc(F)c2c(=O)n1-c1ccccc1 [Idelalisib] | 0.91 | 0.85 | 0.80 | 0.69 | 0.30 | 0.74 | 0.00 | 0.00 | 0.00 | 0.00 | 0.00 | 0.54 |  |  |  | 
7 | Cc1ccc(NC(=O)c2ccc(CN3CCN(C)CC3)cc2)cc1Nc1nccc(-c2cccnc2)n1 [Imatinib] | 1.78 | 1.90 | 0.88 | 0.89 | 15.29 | 18.48 | 0.00 | 13.99 | 15.14 | 0.00 | 1.81 | 1.34 |  |  |  | 
8 | COc1cc2nccc(Oc3ccc(NC(=O)NC4CC4)c(Cl)c3)c2cc1C(N)=O [Lenvatinib] | 0.14 | 0.00 | 0.74 | 0.77 | 0.00 | 0.00 | 0.00 | 0.00 | 0.00 | 0.00 | 0.00 | 0.89 |  |  |  | 
9 | CCOc1cc2ncc(C#N)c(Nc3ccc(OCc4ccccn4)c(Cl)c3)c2cc1NC(=O)/C=C/CN(C)C [Neratinib] | 2.58 | 2.32 | 4.08 | 4.32 | 29.39 | 34.11 | 3.06 | 29.89 | 35.00 | 4.35 | 0.37 | 2.74 |  | larger effect size than everolimus |  | 
10 | NC(=O)c1cccc2cn(-c3ccc([C@@H]4CCCNC4)cc3)nc12 [Niraparib] | 0.70 | 0.59 | 4.30 | 4.85 | 4.42 | 5.23 | 0.00 | 6.12 | 8.06 | 0.00 | 0.00 | 0.00 |  |  |  | 
11 | Cc1ccc(Nc2nccc(N(C)c3ccc4c(C)n(C)nc4c3)n2)cc1S(N)(=O)=O [Pazopanib] | 5.88 | 5.90 | 0.68 | 0.00 | 3.93 | 4.01 | 7.06 | 3.50 | 0.00 | 5.39 | 8.02 | 2.41 |  |  |  | 
12 | O=C(/C=C\n1cnc(-c2cc(C(F)(F)F)cc(C(F)(F)F)c2)n1)NNc1cnccn1 [Selinexor] | 21.81 | 21.40 | 24.71 | 25.16 | 2.30 | 2.51 | 23.72 | 0.00 | 0.00 | 24.91 | 26.41 | 24.24 |  |  | top hit | top hit
13 | CO[C@H]1C[C@@H]2CC[C@@H](C)[C@@](O)(O2)C(=O)C(=O)N2CCCC[C@H]2C(=O)O[C@H]([C@H](C)C[C@@H]2CC[C@@H](OC(=O)C(C)(CO)CO)[C@H](OC)C2)CC(=O)[C@H](C)/C=C(\C)[C@@H](O)[C@@H](OC)C(=O)[C@H](C)C[C@H](C)/C=C/C=C/C=C/1C [Temsirolimus] | 8.19 | 8.71 | 2.99 | 3.21 | 8.19 | 9.23 | 9.23 | 2.99 | 3.88 | 3.88 | 9.71 | 2.54 | much larger effects on the REH cell line |  | top hit | top hit
